What was measured:
CFTR = CFTR (Mus musculus, UniProt P26361); experiment: CFTR expression in PN cells; assay type: cell-based; design: endogenous in cells; host or cells: PN (Pkd1-null mouse proximal tubule) cells; conditions: 10 μM VX-809 for 16 h vs control PN cells
Protocol: FIG. 19A, FIG. 19B, FIG. 19C, and FIG. 19D show CFTR expression in PN cells treated with VX-809 (10 μM) for 16 h.
The expression of CFTR was evaluated in PN cells treated with VX-809 and control PN cells. PN cells were treated with 10 μM VX-809 for 16 h or a control.

Hsp27 = experiment: Western blot of Hsp27 in kidney tissue lysates; assay type: in vivo, mouse; conditions: cyst induced pkd−/− mice, VX-809 30 mg/kg BW
Protocol: (§1) FIG. 7A, FIG. 7B, FIG. 7C, FIG. 7D, FIG. 7E, and FIG. 7F show chaperone expression is altered in mice by VX-809. (FIG. 7A-FIG. 7B) Representative Western blot images of HSP27, 70, 90 and HSP40 in lysates of kidney tissue from no cyst induced (ND), cyst induced with Doxycycline (D) or cyst induced pkd−/− mice treated with VX-809 (D+VX-809) 30 mg/kg BW. (FIG. 7C, FIG. 7D, FIG. 7E, and FIG. 7F) Columns represent averages±standard errors of HSP27, 70, 90 and HSP40 expression. Data were analyzed by non-parametric t-test. n=4 for each treated and control groups. Black lines between lanes represent representative experiments from the same gel. *P<0.05; **P<0.01; To facilitate their growth in the kidney, cysts have developed an altered network of proteins that most likely serves to protect them from stress (34). Next, it was determined whether VX-809 would alter the levels of Hsps in pkd−/− mice and in PN cells. […] Hsp 27, 70 and 90 are all elevated in cystic kidneys compared to normal controls. […] There is no change in Hsp 40. […] Both sets of data are consistent with an alteration in the heat shock response to cyst growth.

Hsp70 = experiment: Western blot of Hsp70 in PN cells; assay type: cell-based, mouse; conditions: VX-809 10 μM 16 h
Protocol: (§2) FIG. 8A, FIG. 8B, FIG. 8C, FIG. 8D, FIG. 8E, FIG. 8F, FIG. 8G, and FIG. 8H show chaperone expression is altered in PH and PN cells by VX-809. (FIG. 8A) Western blot showing expression of HSP27, 70 and HSP 90 in VX-809 treated or control PN cells. […] (FIG. 8E). Western blot of HSP27, 70 and 90 in PH vs. PN cells. […] Whereas, Hsp70 is higher in PH vs. PN cells. Data were analyzed by non-parametric t test. Experiment was repeated 4-5 times. Cells were grown in 10-cm culture dishes at permissive conditions (33° C.) with γ-interferon in culture media. Cells were then transferred to non-permissive conditions at 37° C., γ-interferon free culture media and evaluated at full confluence. At day four, cells were treated with VX-809 (10 μM) for 16 h and harvested on fifth day for assay. *P<0.05., **P<0.01, ***P<0.001, ****P<0.0001; To facilitate their growth in the kidney, cysts have developed an altered network of proteins that most likely serves to protect them from stress (34). Next, it was determined whether VX-809 would alter the levels of Hsps in pkd−/− mice and in PN cells. […] Hsp 27, 70 and 90 are all elevated in cystic kidneys compared to normal controls. […] There is no change in Hsp 40. […] Both sets of data are consistent with an alteration in the heat shock response to cyst growth.

Hsp90 [1] = experiment: Western blot of Hsp90 in PN cells; assay type: cell-based, mouse; conditions: VX-809 10 μM 16 h
Protocol: as §2

PC2 = experiment: Western blot of PC2 expression; assay type: cell-based, mouse; conditions: PN cells, endogenous PC2
Protocol: FIG. 6A and FIG. 6B show PC2 expression is unchanged by VX-809. (FIG. 6A) Western blot showing expression of PC2 in treated or control cells. (FIG. 6B) Columns represent the means±SEM of the PC2 expression. The data were analyzed by non-parametric t-test. The experiment was repeated six (control) or seven times;
PC2 is a 968-amino acid protein with an approximate molecular weight of 100 kDa in its monomeric form. To determine whether VX-809 affects PC2 protein expression, western blot experiments were conducted on PN cells to determine the resting levels of endogenous PC2.

PN cells = experiment: BrdU cell proliferation assay; assay type: cell-based, mouse; conditions: 1 and 10 μM vs DMSO-treated cells
Description: FIG. 3A, FIG. 3B, FIG. 3C, and FIG. 3D show cell proliferation is reduced by VX-809. (FIG. 3A-FIG. 3B) Proliferation in kidneys of Pkd1^fl/fl; Pax8^rtTA; TetO-cre mice. Representative images of Ki67 (a cellular marker for proliferation) staining of PN21 kidney sections from DMSO- and VX-809-treated mice. Arrows indicate Ki67-positive cells. Pictures were acquired with a Zeiss microscope equipped with 20× objective. (FIG. 3C) Summary data for Ki67-positive cells. Columns represent averages±standard errors of DMSO (vehicle)-treated (n=3) and VX-809-treated (n=3) mice. Statistical analysis was performed using a two-tailed Student's t test. (FIG. 3D) Proliferation in PN cells. PN cells were treated with VX-809 or DMSO). The bromodeoxyuridine (BrdU) concentration in the cells was measured by using a BrdU cell proliferation assay kit (Millipore Sigma #2750) according to the manufacturer's protocol. Columns represent averages±SEs of the OD of BrdU at 450/550 […]. Data were analyzed using Student's t-test, with n=5-7. Methods were described previously (62). […]; **P<0.01;
A hallmark of the cysts in ADPKD is an increase in proliferation in response to cAMP (23). Therefore, it was determined whether VX-809 would affect proliferation.

Hsp90 [2] = experiment: Western blot of Hsp90 in kidney tissue lysates; assay type: in vivo, mouse; conditions: cyst induced pkd−/− mice, VX-809 30 mg/kg BW
Protocol: as §1

Sequence of CFTR (P26361 whole entry): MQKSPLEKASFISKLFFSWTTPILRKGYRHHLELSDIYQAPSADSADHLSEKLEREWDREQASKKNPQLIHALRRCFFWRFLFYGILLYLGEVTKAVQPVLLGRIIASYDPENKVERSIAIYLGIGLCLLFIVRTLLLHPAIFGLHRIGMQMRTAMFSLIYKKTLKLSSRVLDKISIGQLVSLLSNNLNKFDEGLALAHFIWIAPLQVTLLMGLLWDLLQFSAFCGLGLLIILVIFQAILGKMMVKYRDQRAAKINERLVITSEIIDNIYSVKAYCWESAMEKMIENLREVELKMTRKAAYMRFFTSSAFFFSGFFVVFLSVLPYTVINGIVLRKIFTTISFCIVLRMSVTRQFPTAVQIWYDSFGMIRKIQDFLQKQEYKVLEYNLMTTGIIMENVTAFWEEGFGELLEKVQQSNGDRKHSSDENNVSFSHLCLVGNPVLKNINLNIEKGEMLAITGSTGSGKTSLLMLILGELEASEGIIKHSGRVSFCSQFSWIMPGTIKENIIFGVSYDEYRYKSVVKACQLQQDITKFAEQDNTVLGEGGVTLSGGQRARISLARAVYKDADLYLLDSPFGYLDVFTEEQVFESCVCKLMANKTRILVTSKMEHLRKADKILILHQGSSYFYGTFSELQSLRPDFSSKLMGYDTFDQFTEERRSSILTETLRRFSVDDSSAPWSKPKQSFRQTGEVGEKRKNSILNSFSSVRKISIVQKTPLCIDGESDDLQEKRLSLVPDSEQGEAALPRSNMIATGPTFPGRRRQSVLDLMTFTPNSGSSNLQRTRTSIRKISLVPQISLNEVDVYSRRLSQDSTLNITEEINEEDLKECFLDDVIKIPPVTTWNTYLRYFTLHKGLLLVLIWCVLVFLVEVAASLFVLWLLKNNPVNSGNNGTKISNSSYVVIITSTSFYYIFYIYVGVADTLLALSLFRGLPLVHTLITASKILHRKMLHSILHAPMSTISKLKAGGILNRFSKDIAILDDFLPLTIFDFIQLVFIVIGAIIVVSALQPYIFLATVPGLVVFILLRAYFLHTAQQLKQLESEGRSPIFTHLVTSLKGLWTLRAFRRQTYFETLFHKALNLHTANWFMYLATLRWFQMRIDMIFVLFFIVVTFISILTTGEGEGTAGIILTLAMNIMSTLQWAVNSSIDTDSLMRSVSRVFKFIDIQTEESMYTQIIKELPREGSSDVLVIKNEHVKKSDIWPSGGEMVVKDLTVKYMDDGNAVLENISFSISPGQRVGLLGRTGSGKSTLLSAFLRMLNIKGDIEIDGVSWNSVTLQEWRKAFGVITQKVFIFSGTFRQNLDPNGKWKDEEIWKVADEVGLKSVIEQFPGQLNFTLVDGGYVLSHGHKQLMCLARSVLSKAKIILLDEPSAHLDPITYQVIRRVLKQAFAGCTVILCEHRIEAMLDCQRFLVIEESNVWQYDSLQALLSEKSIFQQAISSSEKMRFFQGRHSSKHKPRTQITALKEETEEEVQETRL

- CFTR expression (CFTR): enhanced CFTR expression
Substance: lumacaftor [VX-809]
- Hsp27 expression in kidneys (Hsp27): significantly less expression
- Hsp70 expression in PN cells (Hsp70): reduced expression
- Hsp90 expression in PN cells (Hsp90 [1]): reduced expression
- PC2 expression (PC2): no effect on PC2 expression
- cell proliferation (BrdU) (PN cells): significantly inhibit cell proliferation
- Hsp90 expression in kidneys (Hsp90 [2]): significantly less expression

Reference: patent publication US20200289482A1, “CYSTIC FIBROSIS TRANSMEMBRANE CONDUCTANCE REGULATOR MODULATORS FOR TREATING AUTOSOMAL DOMINANT POLYCYSTIC KIDNEY DISEASE” (The Johns Hopkins University, priority 2017, published 2020)
